Consider 26 molecules from patent US9204653B2, “5-fluoro pyrimidine derivatives” (DOW AGROSCIENCES LLC, priority 2008, dated 2015).

The assay concerns Mycosphaerella graminicola; Anamorph: Septoria tritici; Bayer Code SEPTTR. In words: Leaf blotch of wheat, foliar fungicide treatment, one day protectant (1DP) or three day curative (3DC). It is filed as in vivo, Septoria tritici on wheat plants (variety Yuma). As to conditions: Zymoseptoria tritici, percent disease control rating.
The mark [1] stands for this setting: 24 h, one day protectant (1DP), read-out: SETTTR 1DP 25 ppm.
[2] abbreviates: 24 h, one day protectant (1DP), read-out: SEPTTR 1DP 100 ppm.
[3] abbreviates: 72 h, three day curative (3DC), read-out: SEPTTR 3DC 25 ppm.
[4] abbreviates: 72 h, three day curative (3DC), read-out: SEPTTR 3DC 100 ppm.

Read-outs that look alike come from different tables or passages of the source.

Consider `CN(Oc1ncc(F)c(N)n1)C(=O)OC(C)(C)C` [Compound 50, O-(4-Amino-5-fluoropyrimidin-2-yl)-t-butyl N-methyl-N-hydroxycarbamate], for which the pest or weed control at 25 ppm by setting is: under setting [1], 26 to 50%; under setting [3], 26 to 50%. Further, the pest or weed control at 100 ppm by setting is: under setting [2], 76 to 100%; under setting [4], 76 to 100%.

Regarding `CC(=O)Nc1nc(OCc2ccc(F)cc2)ncc1F` [Compound 52], the pest or weed control at 25 ppm was 76 to 100% under setting [1] and 51 to 75% under setting [3]. The pest or weed control at 100 ppm by setting is: under setting [2], 76 to 100%; under setting [4], 51 to 75%.

As to `CC(=S)Nc1nc(OCc2ccc(F)cc2)ncc1F` [Compound 53, N-(5-Fluoro-2-(4-fluorobenzyloxy)pyrimidin-4-yl)ethanethioamide], the pest or weed control at 25 ppm reads like this: under setting [1], 76 to 100%; under setting [3], 76 to 100%. The pest or weed control at 100 ppm is, setting by setting: under setting [2], 76 to 100%; under setting [4], 76 to 100%.

Turning to `COc1cccc(COc2ncc(F)c(NC(=S)NCc3ccccc3F)n2)c1` [Compound 54], the pest or weed control at 25 ppm runs as follows: under setting [1], 51 to 75%; under setting [3], 0 to 25%. Moreover, the pest or weed control at 100 ppm reads like this: under setting [2], 76 to 100%; under setting [4], 0 to 25%.

Consider `Cn1ccc(COc2ncc(F)c(N)n2)n1` [Compound 55], for which the pest or weed control at 25 ppm lay in the range of 76 to 100% under setting [1] and 76 to 100% under setting [3]. Also, the pest or weed control at 100 ppm under setting [2] was 76 to 100% and the pest or weed control at 100 ppm under setting [4] is 76 to 100%.

For `CC(Oc1ncc(F)c(N)n1)c1ccc2ccccc2c1` (centres unmarked) [Compound 57], the pest or weed control at 25 ppm by setting is: under setting [1], 76 to 100%; under setting [3], 76 to 100%. Besides, the pest or weed control at 100 ppm was 76 to 100% under setting [2] and 76 to 100% under setting [4].

`CN(C)/C=N/c1nc(OC(=O)c2ccccc2F)ncc1F` [Compound 58]: the pest or weed control at 25 ppm reads like this: under setting [1], 76 to 100%; under setting [3], 76 to 100%. Also, the pest or weed control at 100 ppm lay within 76 to 100% under setting [2] and 76 to 100% under setting [4].

As for `O=C(NCc1ccccc1)Nc1nc(OCc2ccc(F)cc2)ncc1F` [Compound 59], the pest or weed control at 25 ppm reads like this: under setting [1], 0 to 25%; under setting [3], 0 to 25%. For the same molecule, the pest or weed control at 100 ppm under setting [2] is 0 to 25% and the pest or weed control at 100 ppm under setting [4] was 26 to 50%.

For `Nc1nc(OCc2ccc(F)c(C(F)(F)F)c2)ncc1F` [Compound 60], the pest or weed control at 25 ppm fell in the range of 76 to 100% under setting [1] and 76 to 100% under setting [3]. For the same molecule, the pest or weed control at 100 ppm under setting [2] lay within 76 to 100% and the pest or weed control at 100 ppm under setting [4] fell in the range of 76 to 100%.

For `Cn1ccc(COc2ncc(F)c(NC(=O)NCc3ccccc3F)n2)n1` [Compound 64], the pest or weed control at 25 ppm runs as follows: under setting [1], 0 to 25%; under setting [3], 0 to 25%. In addition, the pest or weed control at 100 ppm under setting [2] was 0 to 25% and the pest or weed control at 100 ppm under setting [4] was in the range of 26 to 50%.

`COc1ccc(/C=N/Nc2nc(OCc3cccc(OC)c3)ncc2F)cc1` [Compound 65]: the pest or weed control at 25 ppm runs as follows: under setting [1], 26 to 50%; under setting [3], 26 to 50%. Besides, the pest or weed control at 100 ppm is, setting by setting: under setting [2], 51 to 75%; under setting [4], 51 to 75%.

As to `CCOc1cccc(COc2ncc(F)c(N)n2)c1` [Compound 66], the pest or weed control at 25 ppm reads like this: under setting [1], 76 to 100%; under setting [3], 76 to 100%. Also, the pest or weed control at 100 ppm under setting [2] lay within 76 to 100% and the pest or weed control at 100 ppm under setting [4] lay in the range of 76 to 100%.

In the case of `C[C@@H](Oc1ncc(F)c(N)n1)c1ccc(Br)cc1` [Compound 70], the pest or weed control at 25 ppm reads like this: under setting [1], 26 to 50%; under setting [3], 26 to 50%. Besides, the pest or weed control at 100 ppm lay within 76 to 100% under setting [2] and 76 to 100% under setting [4].

With `CCOC(=O)Nc1nc(OCc2ccccc2)ncc1F` [Compound 71], the pest or weed control at 25 ppm runs as follows: under setting [1], 76 to 100%; under setting [3], 76 to 100%. In addition, the pest or weed control at 100 ppm under setting [2] was 76 to 100% and the pest or weed control at 100 ppm under setting [4] was 76 to 100%.

Take `C/C(=N\Oc1ncc(F)c(N)n1)c1ccc(F)cc1` [Compound 72]: the pest or weed control at 25 ppm reads like this: under setting [1], 76 to 100%; under setting [3], 76 to 100%. The pest or weed control at 100 ppm under setting [2] is 76 to 100% and the pest or weed control at 100 ppm under setting [4] is 76 to 100%.

`N#Cc1ccc(COc2ncc(F)c(N)n2)cc1` [Compound 74]: the pest or weed control at 25 ppm was in the range of 51 to 75% under setting [1] and 0 to 25% under setting [3]. The pest or weed control at 100 ppm runs as follows: under setting [2], 76 to 100%; under setting [4], 0 to 25%.

Regarding `COc1ccc(COc2ncc(F)c(NC(=S)NCc3ccccc3F)n2)cc1F` [Compound 75], the pest or weed control at 25 ppm under setting [1] fell in the range of 26 to 50% and the pest or weed control at 25 ppm under setting [3] fell in the range of 76 to 100%. Also, the pest or weed control at 100 ppm reads like this: under setting [2], 76 to 100%; under setting [4], 76 to 100%.

For the molecule `Cn1c(COc2ncc(F)c(N)n2)cc2sccc21` [Compound 76], the pest or weed control at 25 ppm reads like this: under setting [1], 26 to 50%; under setting [3], 26 to 50%. Also, the pest or weed control at 100 ppm runs as follows: under setting [2], 26 to 50%; under setting [4], 26 to 50%.

For the molecule `COc1cccc(COc2ncc(F)c(NN3CCN(C)CC3)n2)c1` [Compound 77], the pest or weed control at 25 ppm fell in the range of 0 to 25% under setting [1] and 26 to 50% under setting [3]. The pest or weed control at 100 ppm lay in the range of 76 to 100% under setting [2] and 76 to 100% under setting [4].

For the molecule `Cc1cccc(COc2ncc(F)c(N)n2)n1` [Compound 78], the pest or weed control at 25 ppm is, setting by setting: under setting [1], 76 to 100%; under setting [3], 76 to 100%. Besides, the pest or weed control at 100 ppm runs as follows: under setting [2], 76 to 100%; under setting [4], 76 to 100%.

In the case of `Cn1ccc(COc2ncc(F)c(NC(=O)Nc3ccccc3F)n2)n1` [Compound 81], the pest or weed control at 25 ppm reads like this: under setting [1], 0 to 25%; under setting [3], 0 to 25%. The pest or weed control at 100 ppm runs as follows: under setting [2], 0 to 25%; under setting [4], 0 to 25%.

In the case of `CC(Oc1ncc(F)c(N)n1)c1cccc(Oc2ccccc2)n1` (centres unmarked) [Compound 82], the pest or weed control at 25 ppm under setting [1] lay within 26 to 50% and the pest or weed control at 25 ppm under setting [3] lay within 0 to 25%. Further, the pest or weed control at 100 ppm under setting [2] was 26 to 50% and the pest or weed control at 100 ppm under setting [4] was 26 to 50%.

Regarding `CCCC(Oc1ncc(F)c(N)n1)c1ccc(F)cc1` (centres unmarked) [Compound 83], the pest or weed control at 25 ppm fell in the range of 76 to 100% under setting [1] and 76 to 100% under setting [3]. Also, the pest or weed control at 100 ppm by setting is: under setting [2], 76 to 100%; under setting [4], 76 to 100%.

Take `COc1cccc(COc2ncc(F)c(NSc3ccccc3[N+](=O)[O-])n2)c1` [Compound 85]: the pest or weed control at 25 ppm under setting [1] was in the range of 26 to 50% and the pest or weed control at 25 ppm under setting [3] is 76 to 100%. Moreover, the pest or weed control at 100 ppm reads like this: under setting [2], 76 to 100%; under setting [4], 76 to 100%.

As to `COc1ccccc1COc1ncc(F)c(NC(=O)Cc2ccccc2)n1` [Compound 86], the pest or weed control at 25 ppm runs as follows: under setting [1], 26 to 50%; under setting [3], 0 to 25%. In addition, the pest or weed control at 100 ppm is, setting by setting: under setting [2], 51 to 75%; under setting [4], 0 to 25%.

`CC(Oc1ncc(F)c(NCO)n1)c1ccc(F)cc1` (centres unmarked) [Compound 88]: the pest or weed control at 25 ppm was in the range of 26 to 50% under setting [1] and 26 to 50% under setting [3]. Also, the pest or weed control at 100 ppm by setting is: under setting [2], 76 to 100%; under setting [4], 76 to 100%.
